Data: patent US20260138970A1, “MODULATORS OF THE CALCIUM SIGNALING CASCADE” (FONDAZIONE TELETHON ETS, priority 2022, published 2026)

Legend:
Format in all cases: cell-based
PLC = PLC assay in FRT cells expressing PH-PLC-GFP sensor; conditions: compounds 10 μM, cytosolic GFP increase, FIG. 3; for potentiation of UTP effect on PLC activity, lower UTP concentration: UTP 0.25 μM; for potentiation of UTP effect on PLC activity, higher UTP concentration: UTP 100 μM
Procedure: FRT cells with stable expression of PLC6-PH-GFP, generated in the laboratory of inventors, were cultured up to subconfluent condition in p-Plate96 microplates (Ibidi). Each well of a 96-well microplate was washed 3 times, leaving 125 μl of phosphate-buffered saline (PBS) containing compounds at 10 μM final concentration or vehicle. After 20 min of incubation at 37° C., microplate was moved on the stage of an inverted microscope equipped with GFP excitation/emission filters, 40×oil immersion objective (Olympus, Segrate, Italy), Lambda DG4 illumination system (Sutter Instrument Co., Novato, CA, USA), Prime cmos camera (Photometrics, Tucson, AZ, USA) and MetaMorph imaging acquisition software (Molecular Devices, Sunnyvale, CA, USA). Time-lapse experiments were carried out with 50 ms exposure time, 20 frame/s rate, and 2.4 min total duration. After 20 s and 90 s, UTP 0.25 μM and 100 μM (final concentrations) was respectively added. Analysis was performed with MetaMorph software, by quantifying GFP fluorescence cytoplasmic accumulation in manually selected single cell regions of interest (ROI). After background subtraction, fluorescence recordings were normalized for the initial value.

R269W ITPR1 = biological target: T1, R269W ITPR1 (Homo sapiens, UniProt Q14643, R269W); assay: Fluo-4 Ca2+ assay, UTP, HEK293 cells with inducible R269W ITPR1; conditions: UTP 5 μM; compound 10 μM; tetracycline-induced; FIG. 6B-C
T1 construct: expressed in transfected cells
Procedure: HEK293 cells stably transfected with tetracycline-inducible expression of wild type or mutant (R269W or T267M) ITPR1, kindly provided by Prof. S. R. Wayne Chen (University of Calgary; ref. 14), were cultured in a mixture of Dulbecco's Modified Eagle Medium (DMEM, high glucose version) and Ham's F12 (1:1) and supplemented with 10% fetal bovine serum, 2 mM L-glutamine, 100 U/ml penicillin and 100 μg/ml streptomycin. Cells were selected with 0.5 mg/ml hygromycin B and induced with 1 μg/ml tetracycline.
Experiments were performed using the microplate reader described for the HS-YFP assay. FRT and HEK293 cells were cultured until confluence in 96-well microplates (3603, Corning). Cells were washed 2 times with PBS (150 μl/wash) and then loaded for 1 h at 37° C. with 5 μM Fluo-4/AM (Thermo Fisher Scientific; catalog number: F23917) in PBS containing 10 mM glucose, 0.5 mM sulfinpyrazone, and 1% fetal bovine serum. After loading, cells were washed 2 times with PBS-glucose-sulfinpyrazone (150 μl/wash) and incubated for 20 min at 37° C. with 60 μl of PBS plus 10 mM glucose and 0.5 mM sulfinpyrazone containing compounds of interest at 10 μM final concentration or vehicle. Each well was assayed individually. Fluo-4 fluorescence (500 nm excitation, 535 nm emission) was detected every 200 ms for 16-40 s. Two seconds after the start of fluorescence recording, the reader automatically injected 165 μl of a modified PBS containing 136 mM KCl instead of NaCl. This solution also contained 10 mM glucose, 0.5 mM sulfinpyrazone, and UTP or SLIGR-NH2 (CAS #171436-38-7) at a final concentration that depended on the specific cell type. For UTP we used: 0.25 μM for FRT; 1 μM for HEKR2; 5 μM for HEK3XKO, HEKR1, and HEKR3. For SLIGR-NH2 we used: 10 μM for HEKR1; 4 μM for HEKR2. These concentrations were chosen to elicit ˜20% of maximal effect based on UTP and SLIGR-NH2 dose-response relationships. […] The Fluo-4 fluorescence increase was quantified using a procedure compiled in Microsoft Excel after background subtraction and normalization for the initial value measured before UTP addition.

TMEM16A = assay: Short-circuit current recordings on human cultured bronchial epithelia, UTP-triggered Cl- secretion; conditions: UTP 0.25 μM; ARN7149 10 μM, ARN11391 20 μM, ARN4550 20 μM; amiloride, paxillin, inh-172 present; FIG. 5A
Procedure: Human bronchial epithelial cells (HBECs) were isolated and cultured as reported in a previous study (21; 40). Briefly, HBECs were cultured in flasks in a home-made serum-free medium (21). After four to five passages, cells were seeded at high density (500,000/cm^2) on Snapwell porous insert (cc3801, Corning Costar). After 24 h from seeding, the basolateral medium was replaced with differentiation medium PneumaCult ALI (Stemcell Technologies), whereas the apical medium was totally removed to obtain the air-liquid interface (ALI) condition. Epithelia were kept under this condition for at least 2-3 weeks to achieve mucociliary differentiation.
Snapwell supports (3801, Corning) carrying FRT and differentiated HBEC epithelia were mounted in a vertical chamber resembling an Ussing system with internal fluid circulation (EM-CSYS-8, Physiologic Instruments, San Diego, CA, USA). For FRT epithelia, the apical and basolateral hemichambers were filled with solutions of different composition. The apical solution (5 ml) contained (in mM): 63 NaCl, 63 sodium gluconate, 0.38 KH2PO4, 2.13 K2HPO4, 2 CaCl2, 1 MgSO4, 20 Na-Hepes (pH 7.3), and 10 glucose. The basolateral solution (5 ml) instead contained (in mM): 126 KCl, 0.38 KH2PO4, 2.13 K2HPO4, 1 CaCl2, 1 MgSO4, 20 Na-Hepes (pH 7.3), and 10 glucose. Both solutions were continuously bubbled with air and the temperature of the solution was kept at 37° C. For HBECs, the same (bicarbonate-buffered) solution was used in both chambers. The composition of this solution was (in mM): 126 NaCl, 0.38 KH2PO4, 2.13 K2HPO4, 1 MgSO4, 1 CaCl2), 24 NaHCO3, and 10 glucose. Both sides were continuously bubbled with a gas mixture containing 5% CO2 and 95% air. […]
Transepithelial voltage was short-circuited with a voltage-clamp (VCC MC8, Physiologic Instruments, San Diego, CA, USA) connected to the apical and basolateral chambers via Ag—AgCl electrodes and agar bridges (2% agar in 1 M KCl). […] The resulting short-circuited current from each channel was recorded on a personal computer with the Acquire & Analize 2.3 software (Physiologic Instruments, San Diego, CA, USA).

T1 sequence (Q14643 whole entry R269W): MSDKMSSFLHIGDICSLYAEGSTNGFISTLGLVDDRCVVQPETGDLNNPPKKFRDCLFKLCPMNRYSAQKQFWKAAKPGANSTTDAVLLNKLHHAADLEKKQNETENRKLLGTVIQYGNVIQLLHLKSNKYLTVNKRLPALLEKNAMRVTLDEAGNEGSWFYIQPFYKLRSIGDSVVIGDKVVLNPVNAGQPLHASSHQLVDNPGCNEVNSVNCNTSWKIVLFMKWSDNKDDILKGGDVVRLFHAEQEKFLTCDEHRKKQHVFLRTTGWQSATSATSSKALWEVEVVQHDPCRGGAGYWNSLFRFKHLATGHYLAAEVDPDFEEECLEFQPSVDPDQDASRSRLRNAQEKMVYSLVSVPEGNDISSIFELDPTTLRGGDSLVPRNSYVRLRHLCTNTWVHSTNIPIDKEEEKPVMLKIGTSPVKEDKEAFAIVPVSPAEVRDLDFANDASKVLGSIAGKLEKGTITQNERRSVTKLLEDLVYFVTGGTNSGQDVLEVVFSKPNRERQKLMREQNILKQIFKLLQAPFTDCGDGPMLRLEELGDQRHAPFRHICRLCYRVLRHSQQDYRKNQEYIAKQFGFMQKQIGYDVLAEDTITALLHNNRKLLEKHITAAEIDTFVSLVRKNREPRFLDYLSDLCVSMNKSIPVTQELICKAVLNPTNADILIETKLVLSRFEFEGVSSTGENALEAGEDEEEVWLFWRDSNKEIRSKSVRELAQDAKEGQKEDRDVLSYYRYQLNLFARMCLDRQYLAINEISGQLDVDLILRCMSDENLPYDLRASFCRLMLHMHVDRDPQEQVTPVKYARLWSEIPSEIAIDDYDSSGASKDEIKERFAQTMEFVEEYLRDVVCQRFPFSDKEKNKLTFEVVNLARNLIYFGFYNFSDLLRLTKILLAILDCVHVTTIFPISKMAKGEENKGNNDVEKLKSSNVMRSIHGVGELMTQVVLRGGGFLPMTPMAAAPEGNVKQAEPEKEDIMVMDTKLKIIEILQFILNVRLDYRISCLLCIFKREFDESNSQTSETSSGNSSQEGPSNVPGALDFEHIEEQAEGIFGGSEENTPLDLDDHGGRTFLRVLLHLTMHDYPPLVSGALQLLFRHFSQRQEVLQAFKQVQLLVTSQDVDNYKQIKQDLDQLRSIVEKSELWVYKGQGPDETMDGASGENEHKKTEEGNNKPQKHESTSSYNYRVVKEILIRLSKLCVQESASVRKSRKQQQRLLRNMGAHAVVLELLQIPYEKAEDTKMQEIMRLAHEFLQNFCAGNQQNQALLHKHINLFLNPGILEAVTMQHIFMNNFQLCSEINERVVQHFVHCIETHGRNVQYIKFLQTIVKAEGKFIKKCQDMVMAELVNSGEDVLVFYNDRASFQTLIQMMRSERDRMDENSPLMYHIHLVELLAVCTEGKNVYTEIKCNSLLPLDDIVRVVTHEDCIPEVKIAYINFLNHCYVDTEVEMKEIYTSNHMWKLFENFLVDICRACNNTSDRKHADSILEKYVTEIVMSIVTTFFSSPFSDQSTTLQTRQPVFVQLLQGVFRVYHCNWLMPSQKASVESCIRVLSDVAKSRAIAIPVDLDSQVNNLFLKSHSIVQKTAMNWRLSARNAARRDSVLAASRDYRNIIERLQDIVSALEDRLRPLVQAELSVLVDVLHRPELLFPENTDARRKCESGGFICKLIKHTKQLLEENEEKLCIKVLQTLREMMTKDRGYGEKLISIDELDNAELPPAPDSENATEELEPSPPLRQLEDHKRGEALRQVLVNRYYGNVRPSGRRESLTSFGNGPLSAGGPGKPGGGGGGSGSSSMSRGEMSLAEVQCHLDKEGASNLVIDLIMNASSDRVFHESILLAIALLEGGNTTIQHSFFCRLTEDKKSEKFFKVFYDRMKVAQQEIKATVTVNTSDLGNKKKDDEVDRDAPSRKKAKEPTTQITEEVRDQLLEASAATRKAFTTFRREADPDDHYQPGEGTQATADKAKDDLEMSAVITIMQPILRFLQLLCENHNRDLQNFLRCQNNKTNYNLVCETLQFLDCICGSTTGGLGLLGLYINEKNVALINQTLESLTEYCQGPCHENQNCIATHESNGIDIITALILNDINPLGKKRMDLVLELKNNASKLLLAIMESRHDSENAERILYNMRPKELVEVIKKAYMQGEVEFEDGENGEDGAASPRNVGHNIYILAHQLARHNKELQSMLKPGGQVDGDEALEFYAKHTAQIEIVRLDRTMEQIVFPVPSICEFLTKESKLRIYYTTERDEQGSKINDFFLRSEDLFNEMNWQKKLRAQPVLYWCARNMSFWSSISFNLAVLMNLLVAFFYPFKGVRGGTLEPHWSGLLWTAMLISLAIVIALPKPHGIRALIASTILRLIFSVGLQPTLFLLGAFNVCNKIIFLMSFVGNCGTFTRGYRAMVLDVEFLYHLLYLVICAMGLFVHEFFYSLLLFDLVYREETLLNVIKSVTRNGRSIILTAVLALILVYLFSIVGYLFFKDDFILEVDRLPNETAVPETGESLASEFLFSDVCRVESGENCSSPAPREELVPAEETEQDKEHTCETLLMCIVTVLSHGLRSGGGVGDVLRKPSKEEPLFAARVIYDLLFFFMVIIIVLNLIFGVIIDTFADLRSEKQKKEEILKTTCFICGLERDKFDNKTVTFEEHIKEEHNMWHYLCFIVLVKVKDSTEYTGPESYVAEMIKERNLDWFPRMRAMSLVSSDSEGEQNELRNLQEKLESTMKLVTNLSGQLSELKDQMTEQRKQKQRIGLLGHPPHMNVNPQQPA

Structure (SMILES)	potentiation of UTP effect on PLC activity, lower UTP concentration (PLC)	potentiation of UTP effect on PLC activity, higher UTP concentration (PLC)	potentiation of Ca2+ mobilization elicited by UTP, R269W mutant (R269W ITPR1)	transepithelial Cl- current elicited by apical UTP (TMEM16A)
OCc1ccccc1CN(Cc1ccnc(N2CCCC2)n1)c1ccc(F)cc1 [ARN4550, [2-[[4-Fluoro-N-[(2-pyrrolidin-1-ylpyrimidin-4-yl)methyl]anilino]methyl]phenyl]methanol]	significantly potentiated	effective	also effective although less than ARN11391	significantly enhanced
CCc1cc(-c2cc(NCCCOc3ccccc3C)nc(N)n2)n(C)n1 [ARN7149, 6-(3-Ethyl-1-methyl-1H-pyrazol-5-yl)-N^4-(3-(o-tolyloxy)propyl)pyrimidine-2,4-diamine]	significantly potentiated	effective	also effective although less than ARN11391	significantly enhanced
CCn1nc2c(c1C(=O)Nc1ccccc1OCC1CCCCO1)CCCC2 (centres unmarked) [ARN11391, 2-Ethyl-N-[2-(tetrahydropyran-2-ylmethoxy)phenyl]-4,5,6,7-tetrahydroindazole-3-carboxamide]	–	effective	marked potentiation	significantly enhanced
